The results in this text go back to ChEMBL document CHEMBL1201862, “PubChem BioAssay data set” (2004).

Among the test systems are NCI/ADR-RES; SK-MEL-5; HCT-116; UACC-257; UACC-62; MDA-MB-435; HCC 2998; DU-145; OVCAR-5; A549; SK-MEL-2; MCF7; CAKI-1; RPMI-8226; OVCAR-4; MOLT-4; COLO 205; OVCAR-8; LOX IMVI; SR.
Assay in all cases: NCI-60 cell line screen, 48 h

SMILES strings stand for the structures.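 Each compound was tested at five concentrations against cells in 96-well plates for 48 hours. At the GI50, growth is halved.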 Calls of active or inactive are those of the source. Rule as the data show it: active = GI50 up to about 1.1 µM and inactive = higher.

For the molecule `N#Cc1c(C#N)c(SSc2c(C#N)c(C#N)c(N)n2-c2ccccc2)n(-c2ccccc2)c1N`, the GI50 in the experiment with NCI/ADR-RES is 33.8 µM (inactive); in the experiment with SK-MEL-5, 6.22 µM (inactive); in the experiment with HCT-116, 3.33 µM (inactive); in the experiment with UACC-257, 24.8 µM (inactive); with UACC-62 it was 16.9 µM (inactive); in the experiment with MDA-MB-435, 14.9 µM (inactive). In addition, the GI50 in the experiment with HCC 2998 was 20.9 µM (inactive); in the experiment on DU-145, 18.6 µM (inactive); in the experiment on OVCAR-5, 36.4 µM (inactive); in the experiment with A549 it was 36 µM (inactive); with SK-MEL-2, 21.1 µM (inactive); in the experiment on MCF7, 2.39 µM (inactive). In addition, the GI50 is 2.14 µM (inactive) in the experiment with CAKI-1; 2.78 µM (inactive) with RPMI-8226; 2.25 µM (inactive) in the experiment on OVCAR-4; 5.89 µM (inactive) in the experiment on MOLT-4; 1.99 µM (inactive) with COLO 205; > 100 µM (inactive) with OVCAR-8. Moreover, the GI50 in the experiment with LOX IMVI is 86.7 µM (inactive).
On to `O=C1/C(=C/c2ccc3c(c2)OCO3)Sc2scc(-c3ccc(O)c(O)c3)[n+]21`, for which the GI50 was 1.87 µM (inactive) in the experiment on NCI/ADR-RES; 2.54 µM (inactive) in the experiment on SK-MEL-5; 1.96 µM (inactive) with HCT-116; 3.6 µM (inactive) with UACC-257; 2.67 µM (inactive) in the experiment with UACC-62; 3.3 µM (inactive) in the experiment with MDA-MB-435. The GI50 in the experiment on HCC 2998 is 1.82 µM (inactive); with DU-145, 4.44 µM (inactive); in the experiment on OVCAR-5 it was 8.32 µM (inactive); in the experiment with A549, 11.1 µM (inactive); in the experiment on SK-MEL-2, 10.8 µM (inactive); in the experiment on MCF7, 3.22 µM (inactive). The GI50 with CAKI-1 is 1.53 µM (inactive); with RPMI-8226, 1.71 µM (inactive); in the experiment with OVCAR-4 it was 4.2 µM (inactive); with MOLT-4 it was 0.927 µM (active); in the experiment with COLO 205, 2.55 µM (inactive); in the experiment with OVCAR-8, 2.99 µM (inactive). Besides, the GI50 in the experiment with LOX IMVI was 2.34 µM (inactive).
On to `C/C(=C\c1ccccc1)C(=O)NCc1ccc(C(=O)NCCC(C)C)cc1`, for which the GI50 with NCI/ADR-RES was 45.5 µM (inactive); in the experiment with SK-MEL-5, > 100 µM (inactive); with HCT-116, 65 µM (inactive); with UACC-257, > 100 µM (inactive); in the experiment with UACC-62, 15.6 µM (inactive); in the experiment on MDA-MB-435 it was > 100 µM (inactive). Besides, the GI50 with HCC 2998, in the experiment with DU-145, in the experiment with OVCAR-5, in the experiment with A549, in the experiment on SK-MEL-2 and in the experiment with MCF7 was > 100 µM (inactive) in each case. For the same molecule, the GI50 is 93.8 µM (inactive) in the experiment on CAKI-1; > 100 µM (inactive) in the experiment on RPMI-8226; > 100 µM (inactive) with OVCAR-4; > 100 µM (inactive) with MOLT-4; > 100 µM (inactive) with COLO 205; 37.2 µM (inactive) in the experiment with OVCAR-8. Besides, the GI50 in the experiment on LOX IMVI is > 100 µM (inactive).
On to `COc1ccc(CC(N)c2ccc(OC)cc2)cc1` (stereo unspecified), for which the GI50 was > 100 µM (inactive) with NCI/ADR-RES; 43.4 µM (inactive) in the experiment with SK-MEL-5; 92.9 µM (inactive) with HCT-116; 42 µM (inactive) in the experiment with UACC-257; 71.3 µM (inactive) in the experiment on UACC-62; 37.2 µM (inactive) in the experiment with MDA-MB-435. The GI50 in the experiment on HCC 2998 is 18.3 µM (inactive); with DU-145, > 100 µM (inactive); with OVCAR-5, > 100 µM (inactive); in the experiment with A549, > 100 µM (inactive); in the experiment with MCF7 it was 44.5 µM (inactive); with CAKI-1 it was > 100 µM (inactive). The GI50 in the experiment with RPMI-8226 is 28.1 µM (inactive); in the experiment on OVCAR-4, > 100 µM (inactive); in the experiment with MOLT-4, 57.8 µM (inactive); in the experiment on COLO 205 it was 18.2 µM (inactive); with OVCAR-8 it was > 100 µM (inactive); in the experiment on LOX IMVI, 57.5 µM (inactive).
On to `COc1ccc2nc3ccc(OC)cc3c(SCc3ccc([N+](=O)[O-])cc3)c2c1`, for which the GI50 was 67 µM (inactive) in the experiment on NCI/ADR-RES; > 100 µM (inactive) with SR; 70.3 µM (inactive) with HCT-116; > 100 µM (inactive) in the experiment on UACC-257; > 100 µM (inactive) with UACC-62; > 100 µM (inactive) in the experiment with MDA-MB-435. Moreover, the GI50 in the experiment with HCC 2998 was > 100 µM (inactive); in the experiment with DU-145, > 100 µM (inactive); in the experiment on OVCAR-5, > 100 µM (inactive); with A549, > 100 µM (inactive); in the experiment with SK-MEL-2, > 100 µM (inactive); in the experiment with CAKI-1, 44.1 µM (inactive). Also, the GI50 in the experiment with OVCAR-4 was 19 µM (inactive); in the experiment with MOLT-4, > 100 µM (inactive); in the experiment with COLO 205, > 100 µM (inactive); with OVCAR-8, 52.7 µM (inactive); in the experiment on LOX IMVI, > 100 µM (inactive).
As to `CCOC(=O)C1C(C(C)C)C2(C#N)C(=N)OC1(C)C2(C#N)C#N` (stereo unspecified), the GI50 is 45.5 µM (inactive) in the experiment with NCI/ADR-RES; 30.5 µM (inactive) with SK-MEL-5; 56 µM (inactive) in the experiment on HCT-116; 54.8 µM (inactive) in the experiment with UACC-257; 88.9 µM (inactive) with UACC-62; 35.3 µM (inactive) in the experiment with MDA-MB-435. For the same molecule, the GI50 in the experiment on HCC 2998 is > 100 µM (inactive); in the experiment on DU-145, > 100 µM (inactive); in the experiment with OVCAR-5 it was > 100 µM (inactive); in the experiment on A549 it was > 100 µM (inactive); in the experiment with SK-MEL-2, 58.9 µM (inactive); in the experiment with MCF7, 59.4 µM (inactive). For the same molecule, the GI50 is 2.72 µM (inactive) in the experiment with CAKI-1; 32.8 µM (inactive) with RPMI-8226; 7.46 µM (inactive) in the experiment with COLO 205; > 100 µM (inactive) with OVCAR-8; 43.3 µM (inactive) in the experiment on LOX IMVI.
Turning to `Cc1c2c(cc3c1C(=O)C(O)=C([C@@H](C)CO)C3=O)C(C)(C)CCC2`, the GI50 in the experiment with NCI/ADR-RES is 23.3 µM (inactive); in the experiment with SK-MEL-5, 22.2 µM (inactive); in the experiment on SR, 2.84 µM (inactive); in the experiment with HCT-116, 25.7 µM (inactive); in the experiment with UACC-257, 35.6 µM (inactive); in the experiment with UACC-62 it was 28.2 µM (inactive). Also, the GI50 is 26.9 µM (inactive) in the experiment on MDA-MB-435; 30.5 µM (inactive) with DU-145; 36.9 µM (inactive) in the experiment with OVCAR-5; 29.8 µM (inactive) in the experiment with A549; 17.1 µM (inactive) in the experiment on SK-MEL-2; 33.4 µM (inactive) with CAKI-1. For the same molecule, the GI50 was 31.3 µM (inactive) in the experiment on RPMI-8226; 31.3 µM (inactive) in the experiment with OVCAR-4; 13.4 µM (inactive) in the experiment on MOLT-4; 27 µM (inactive) with COLO 205; 25.5 µM (inactive) in the experiment on OVCAR-8; 28.3 µM (inactive) with LOX IMVI.
Turning to `O=C(c1cccnc1)N1N=C(c2ccc(Cl)cc2)CC1(O)c1cc(F)c(Cl)cc1Cl` (stereo unspecified), the GI50 was 16 µM (inactive) in the experiment on NCI/ADR-RES; 11.3 µM (inactive) with SK-MEL-5; 8.85 µM (inactive) in the experiment with SR; 8.3 µM (inactive) in the experiment with HCT-116; 18.5 µM (inactive) with UACC-257; 15.9 µM (inactive) in the experiment with MDA-MB-435. Also, the GI50 with DU-145 is 16.9 µM (inactive); with OVCAR-5, 33.7 µM (inactive); with A549 it was 24.9 µM (inactive); in the experiment on SK-MEL-2 it was 22 µM (inactive); in the experiment on CAKI-1, 28.5 µM (inactive); with RPMI-8226 it was 12.2 µM (inactive). In addition, the GI50 in the experiment on OVCAR-4 was 15.8 µM (inactive); in the experiment on MOLT-4 it was 6.46 µM (inactive); with COLO 205 it was 9.98 µM (inactive); with OVCAR-8 it was 25.1 µM (inactive); in the experiment with LOX IMVI it was 15.1 µM (inactive).
For the molecule `C1=CN2C[n+]3cccc(OCc4ccccc4)c3N=C2C(OCc2ccccc2)=C1`, the GI50 is > 100 µM (inactive) in the experiment on NCI/ADR-RES; 5 µM (inactive) in the experiment with SK-MEL-5; 23.3 µM (inactive) with HCT-116; 8.71 µM (inactive) in the experiment on UACC-257; 11.9 µM (inactive) in the experiment with UACC-62; 14.4 µM (inactive) in the experiment on MDA-MB-435. For the same molecule, the GI50 with HCC 2998 is 5.83 µM (inactive); in the experiment with DU-145, 6.92 µM (inactive); with OVCAR-5, 52 µM (inactive); in the experiment with A549, 19.5 µM (inactive); in the experiment on SK-MEL-2, 11.7 µM (inactive); with MCF7, 13.5 µM (inactive). In addition, the GI50 in the experiment with CAKI-1 was 22 µM (inactive); in the experiment on RPMI-8226, 2.84 µM (inactive); in the experiment on OVCAR-4 it was 4.81 µM (inactive); with COLO 205, 3.88 µM (inactive); with OVCAR-8, 17.4 µM (inactive); in the experiment on LOX IMVI, 20.8 µM (inactive).
As for `CC1=CC(=O)/C(=C/NC(=O)NN)C(=O)O1`, the GI50 in the experiment with NCI/ADR-RES is 94.2 µM (inactive); with SK-MEL-5, > 100 µM (inactive); in the experiment on HCT-116 it was > 100 µM (inactive); in the experiment on UACC-257 it was > 100 µM (inactive); in the experiment on UACC-62, > 100 µM (inactive); in the experiment on MDA-MB-435 it was > 100 µM (inactive). The GI50 in the experiment with HCC 2998, with DU-145, in the experiment with OVCAR-5, with A549, with SK-MEL-2 and in the experiment with MCF7 was > 100 µM (inactive) each time. Besides, the GI50 in the experiment with CAKI-1, in the experiment with OVCAR-4, in the experiment on MOLT-4, in the experiment on COLO 205, in the experiment with OVCAR-8 and with LOX IMVI was > 100 µM (inactive) each time.
With `COc1nc(N(C)C)nc2c1[n+](C)cn2C` [HETEROMINE A], the GI50 is > 100 µM (inactive) in the experiment on NCI/ADR-RES; 41.7 µM (inactive) with SK-MEL-5; 77.8 µM (inactive) with HCT-116; 53.1 µM (inactive) in the experiment with UACC-257; > 100 µM (inactive) in the experiment on UACC-62; 74.8 µM (inactive) in the experiment with MDA-MB-435. Also, the GI50 in the experiment with DU-145 was > 100 µM (inactive); in the experiment on OVCAR-5, > 100 µM (inactive); with A549 it was 46.9 µM (inactive); with SK-MEL-2, 32.2 µM (inactive); in the experiment on CAKI-1, > 100 µM (inactive); in the experiment with RPMI-8226, 6.08 µM (inactive). Besides, the GI50 is 97.9 µM (inactive) in the experiment with MOLT-4, 30.8 µM (inactive) with COLO 205, 44.1 µM (inactive) in the experiment on OVCAR-8 and 84.5 µM (inactive) in the experiment with LOX IMVI.
